Measured values published in ChEMBL document CHEMBL1201862, “PubChem BioAssay data set” (2004).
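96-well plates; 48 h exposure; 5 concentrations. Endpoints by linear interpolation between flanking doses. Not reached: highest tested concentration assigned. GI50 marks 50% less growth.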 The source made the active and inactive calls. Cut-off read from the data, not from the text of the source: active = GI50 up to about 1.1 µM and inactive = higher. Residues, ends and D or L forms follow the SMILES beside them.

Assays:
Assay in all cases: growth of human tumour cells (NCI), 48 h
A498 = system: A498
BT-549 = system: BT-549
DU-145 = system: DU-145
HCC 2998 = system: HCC 2998
HL-60 = system: HL-60
IGROV-1 = system: IGROV-1
M14 = system: M14
MOLT-4 = system: MOLT-4
NCI-H226 = system: NCI-H226
OVCAR-3 = system: OVCAR-3
OVCAR-5 = system: OVCAR-5
OVCAR-8 = system: OVCAR-8
RXF 393 = system: RXF 393
SK-MEL-28 = system: SK-MEL-28
SW-620 = system: SW-620
UACC-257 = system: UACC-257
UO-31 = system: UO-31
SF-539 = system: SF-539
SNB-75 = system: SNB-75
CAKI-1 = system: CAKI-1

Row | Structure (SMILES) | GI50 (A498) | GI50 (BT-549) | GI50 (DU-145) | GI50 (HCC 2998) | GI50 (HL-60) | GI50 (IGROV-1) | GI50 (M14) | GI50 (MOLT-4) | GI50 (NCI-H226) | GI50 (OVCAR-3) | GI50 (OVCAR-5) | GI50 (OVCAR-8) | GI50 (RXF 393) | GI50 (SK-MEL-28) | GI50 (SW-620) | GI50 (UACC-257) | GI50 (UO-31) | GI50 (SF-539) | GI50 (SNB-75) | GI50 (CAKI-1)
1 | Cc1cc(Cl)nc(NC(=O)CSc2ccc(Cl)cc2)n1 | 72.9 µM (inactive) | > 100 µM (inactive) | > 100 µM (inactive) | > 100 µM (inactive) | > 100 µM (inactive) | > 100 µM (inactive) | > 100 µM (inactive) | > 100 µM (inactive) | 22.1 µM (inactive) | > 100 µM (inactive) | > 100 µM (inactive) | > 100 µM (inactive) | > 100 µM (inactive) | > 100 µM (inactive) | > 100 µM (inactive) | > 100 µM (inactive) | > 100 µM (inactive) |  |  | 
2 | COc1ccc(-c2cc(-c3ccccc3)nc(N)n2)c(O)c1 | > 100 µM (inactive) | 1.7 µM (inactive) |  | > 100 µM (inactive) | 2.02 µM (inactive) | 10.6 µM (inactive) | > 27.3 µM (inactive) | 4.16 µM (inactive) | > 100 µM (inactive) | > 49.5 µM (inactive) | > 100 µM (inactive) | 8.69 µM (inactive) | > 100 µM (inactive) | > 83.4 µM (inactive) | 5.32 µM (inactive) | > 100 µM (inactive) | 2.13 µM (inactive) | > 100 µM (inactive) | 28.8 µM (inactive) | 
3 | CC(O)(c1ccccc1)c1nccc2ccccc12 (stereo not drawn) | 71.4 µM (inactive) | 56.1 µM (inactive) | > 100 µM (inactive) | > 100 µM (inactive) | > 100 µM (inactive) | 37.8 µM (inactive) | 74.5 µM (inactive) | 41.9 µM (inactive) | 31.5 µM (inactive) | 57.9 µM (inactive) | 67.1 µM (inactive) | > 100 µM (inactive) | > 100 µM (inactive) | > 100 µM (inactive) | 77.6 µM (inactive) | > 100 µM (inactive) | 51.3 µM (inactive) |  | 53.7 µM (inactive) | > 100 µM (inactive)
4 | Cc1sc2c(c1C)C(=O)c1cccn1-2 | 60 µM (inactive) | 47.2 µM (inactive) | 95.3 µM (inactive) | > 100 µM (inactive) |  | 64.7 µM (inactive) | > 100 µM (inactive) | 38.8 µM (inactive) | > 100 µM (inactive) | > 100 µM (inactive) | > 100 µM (inactive) | > 100 µM (inactive) | 59 µM (inactive) | > 100 µM (inactive) | 72.6 µM (inactive) | > 100 µM (inactive) | 54.7 µM (inactive) |  | 35.2 µM (inactive) | 85.7 µM (inactive)
5 | COC1=CC(=O)c2nc3ccccc3c3ccnc1c23 |  | 14.6 µM (inactive) | 3.25 µM (inactive) | 3.1 µM (inactive) | 2.38 µM (inactive) | 3.56 µM (inactive) | 2.9 µM (inactive) | 4.01 µM (inactive) | 10.8 µM (inactive) | 2.04 µM (inactive) | 12.5 µM (inactive) | 3.26 µM (inactive) | 2.61 µM (inactive) | 19.7 µM (inactive) | 1.03 µM (active) | 5.16 µM (inactive) | 4.35 µM (inactive) | 2.92 µM (inactive) | 9.89 µM (inactive) | 14.3 µM (inactive)
6 | C=CCOC(=O)CCCCCCCCCCCCCCCOC(=O)C1=C(CCC[C@@H](C)O[Si](C)(C)C(C)(C)C)NC(=O)N2[C@H](CC3(CC/C=C\[C@H](CC)O[Si](C(C)C)(C(C)C)C(C)C)OCCO3)CC[C@H]12 | > 100 µM (inactive) | > 100 µM (inactive) | > 100 µM (inactive) | > 100 µM (inactive) |  |  | > 100 µM (inactive) |  | > 100 µM (inactive) | > 100 µM (inactive) | > 100 µM (inactive) |  |  | > 100 µM (inactive) |  | > 100 µM (inactive) | > 100 µM (inactive) | 67.3 µM (inactive) | > 100 µM (inactive) | > 100 µM (inactive)
7 | CC1=CC[C@H](C[C@H](C#CCCCC2OCCO2)O[Si](C(C)C)(C(C)C)C(C)C)C(=O)CC1 | > 100 µM (inactive) | > 100 µM (inactive) | > 100 µM (inactive) | > 100 µM (inactive) |  | > 100 µM (inactive) | > 100 µM (inactive) | > 100 µM (inactive) | > 100 µM (inactive) | > 100 µM (inactive) | > 100 µM (inactive) | > 100 µM (inactive) | > 100 µM (inactive) | > 100 µM (inactive) | > 100 µM (inactive) | > 100 µM (inactive) | > 100 µM (inactive) |  | > 100 µM (inactive) | > 100 µM (inactive)
8 | O=Cc1cc([N+](=O)[O-])no1 | > 100 µM (inactive) | > 100 µM (inactive) | 80.5 µM (inactive) | 35.2 µM (inactive) | 15.9 µM (inactive) | 59 µM (inactive) | 17.1 µM (inactive) | 18.7 µM (inactive) | 78.9 µM (inactive) | 40.6 µM (inactive) | 71.8 µM (inactive) | 41 µM (inactive) | > 100 µM (inactive) | > 100 µM (inactive) | 14.8 µM (inactive) | 28.5 µM (inactive) | > 100 µM (inactive) |  | > 100 µM (inactive) | > 100 µM (inactive)
9 | COC(=O)Cc1c(C2C(CC(=O)OC)c3ccccc3N2C2OC(CO)C(O)C(O)C2O)[nH]c2ccccc12 (stereo not drawn) | > 100 µM (inactive) | > 100 µM (inactive) | > 100 µM (inactive) | > 100 µM (inactive) |  | > 100 µM (inactive) | > 100 µM (inactive) | > 100 µM (inactive) |  | > 100 µM (inactive) | > 100 µM (inactive) |  |  | > 100 µM (inactive) | > 100 µM (inactive) | > 100 µM (inactive) | > 100 µM (inactive) |  | > 100 µM (inactive) | > 100 µM (inactive)
10 | Cc1cc(-c2nc3ccccc3s2)ccc1NC(=O)[C@H](C)N | 14.4 µM (inactive) | 15.7 µM (inactive) | 15.3 µM (inactive) | 10.6 µM (inactive) |  | 4.38 µM (inactive) | 3.14 µM (inactive) | 18.2 µM (inactive) | 0.942 µM (active) | 11.4 µM (inactive) | 0.441 µM (active) | 17.9 µM (inactive) | 12.3 µM (inactive) | 15.7 µM (inactive) | 14.8 µM (inactive) | 16.9 µM (inactive) | 5.78 µM (inactive) |  | 12.5 µM (inactive) | 11.3 µM (inactive)
11 | O=c1[nH]c(=O)n(COCc2ccccc2)cc1Nc1ccc(Br)cc1 | > 100 µM (inactive) | > 100 µM (inactive) | > 100 µM (inactive) | > 100 µM (inactive) | > 100 µM (inactive) | 0.51 µM (active) | > 100 µM (inactive) | > 100 µM (inactive) | > 100 µM (inactive) | > 100 µM (inactive) | > 100 µM (inactive) |  | 43.2 µM (inactive) | > 100 µM (inactive) | > 100 µM (inactive) | > 100 µM (inactive) | > 100 µM (inactive) |  |  | > 100 µM (inactive)
12 | Fc1cccc2nc(-c3ccccc3)cc(OCc3ccccc3)c12 | > 100 µM (inactive) | > 100 µM (inactive) | > 100 µM (inactive) | > 100 µM (inactive) | > 100 µM (inactive) | > 100 µM (inactive) | > 100 µM (inactive) | > 100 µM (inactive) | > 100 µM (inactive) | > 100 µM (inactive) | > 100 µM (inactive) | > 100 µM (inactive) | 69.5 µM (inactive) | > 100 µM (inactive) | > 100 µM (inactive) | > 100 µM (inactive) | > 100 µM (inactive) |  | 65.6 µM (inactive) | 
13 | Clc1ccc(/N=c2\oc3ccccc3cc2-c2nc3ccccc3[nH]2)c(Cl)c1 |  | > 100 µM (inactive) | > 100 µM (inactive) |  | > 100 µM (inactive) | > 100 µM (inactive) | > 100 µM (inactive) | > 100 µM (inactive) |  | > 100 µM (inactive) | > 100 µM (inactive) | > 100 µM (inactive) | 18.6 µM (inactive) |  | > 100 µM (inactive) | > 100 µM (inactive) | > 100 µM (inactive) |  |  | > 100 µM (inactive)
14 | CCC(C)C(NC(=O)C(CC(C)C)NC(=O)CNC(=O)C(NC(=O)C1CCCN1C(=O)C(CC(C)C)NC(=O)C(N)Cc1ccccc1)C(C)CC)C(=O)NC(CC(C)C)C(N)=O (stereo not drawn) (H-FLPIGLIL-NH2; configuration not given here) | > 75 µM (inactive) | > 75 µM (inactive) | > 75 µM (inactive) |  | > 75 µM (inactive) | > 75 µM (inactive) | > 75 µM (inactive) | > 75 µM (inactive) | > 75 µM (inactive) | > 75 µM (inactive) | > 75 µM (inactive) | > 75 µM (inactive) |  | > 75 µM (inactive) | > 75 µM (inactive) | > 75 µM (inactive) | > 75 µM (inactive) | > 75 µM (inactive) |  | > 75 µM (inactive)
15 | O=C([O-])Cc1ccccc1.[Na+] [SODIUM PHENYLACETATE] | 519 µM (inactive) | 723 µM (inactive) |  | 1210 µM (inactive) |  | 597 µM (inactive) | > 2000 µM (inactive) | 289 µM (inactive) | 447 µM (inactive) | 550 µM (inactive) | > 2000 µM (inactive) | 611 µM (inactive) | 582 µM (inactive) | 800 µM (inactive) | 804 µM (inactive) | > 2000 µM (inactive) | 929 µM (inactive) | > 2000 µM (inactive) | 776 µM (inactive) | 
